In US8852591B2, “Combination of BLyS and/or APRIL inhibition and immunosuppressants for treatment of autoimmune disease” (Zymogenetics, Inc., priority 2007, dated 2014):

Tests used:
total serum IgG = experiment: 28-day atacicept and MMF co-administration study, total serum IgG by ELISA; format: in vivo, CD-1 mice
Experimental: (§1) Atacicept and MMF (CellCept) co-administration was tested in a 28-day study in CD-1 mice. One hundred fifty animals were distributed among four treatment groups. Group 1 received vehicle control articles used for both atacicept and MMF using the same route and regimen used for each test article. Group 2 received MMF (351 mg/kg) via daily oral gavage. Group 3 received atacicept (20 mg/kg) three times weekly via subcutaneous injection. Group 4 received atacicept (20 mg/kg, 3×/week, SC) and MMF (351 mg/kg, daily, oral), typically administered within 30 minutes of each other. […]
(§2) Animals were sacrificed at baseline (Day-1) and Days 14, 28 (last day of treatment), 42, 56, and 112. […] Body weights were measured and recorded on Day-1 of the study and weekly thereafter, and prior to sacrifice. […] Total serum IgG, IgM, and IgA were measured using a […] necropsies were conducted on sacrificed animals for evaluation of organ weight changes, gross pathology, and histopathology.
(§3) Total IgG levels were evaluated using a mouse IgG ELISA quantitation kit (Catalog #E90-131, Bethyl Laboratories, Montgomery, Tex.), combined with the ELISA Starter Accessory Package (Catalog #E101, Bethyl Laboratories, Montgomery, Tex.). […] The color reaction was stopped with addition of 2 M H2SO4, and the resulting absorbance (OD-450) was measured on a Spectramax 190 microplate reader. […]

total IgM serum levels = experiment: Repeat and extension of atacicept and MMF combination experiment, total IgM by ELISA; format: in vivo, mice; details: for Numeric mean IgM: dosing until day 91
Experimental: (§4) Using similar procedures to those described in Example 3 and dosing until day 91, the results of Example 3 were replicated and extended in time to days 35, 91, 126, and 182.
(§5) Group 1 received both the vehicle for ATACICEPT and the vehicle for CellCept at the same treatment frequency as the treated groups. Group 2 was treated with only ATACICEPT
(§6) Group 3 received only CellCept. Group 4 received CellCept oral gavage followed by ATACICEPT s.c. injection within a period of approximately 30 minutes. The day of the first treatment was considered day 1 of the study. Throughout the study period clinical observations, hematological and blood chemistry tests, toxicokinetics and additional investigations were carried out.
(§7) Additional satellite groups of animals were used for total immunoglobulin determinations and antibody determination. They were treated and weighed according to the same procedures as the main study.
(§8) Blood samples were collected from 3 animals/sex/group (in progressive numerical order) for the determination of IgG, IgM and IgA serum levels at the following times:
(§9) from animals of groups 9, 10, 11 and 12:
(§10) • on day 34 of the 5-week treatment period • on day 90 of the 13-week treatment period • on day 34 of the 5-week recovery period • on day 90 of the 13-week recovery period
(§11) The blood (at least 0.8-1 mL) was collected at sacrifice from the abdominal aorta of mice after they have been completely anaesthetized with diethyl ether.
(§12) Samples were collected in tubes without any anticoagulant and allowed to clot for about 1 hour at room temperature. The clot were spun down by centrifugation at 3000 rpm at +4° C. for 15 minutes. Blood cells were discarded and the serum banked in 100 μL aliquots (four aliquots for every single analysis) and stored at −80° C. until analysis. Total IgG, IgM and IgA levels were determined by validated ELISA methods.

total serum IgM = experiment: 28-day atacicept and MMF co-administration study, total serum IgM by ELISA; format: in vivo, CD-1 mice
Experimental: as §1, §2
as §3, with “IgM” for “IgG”, “#E90-101,” for “#E90-131,”

total IgG serum levels = experiment: Repeat and extension of atacicept and MMF combination experiment, total IgG by ELISA; format: in vivo, mice; details: for Numeric mean IgG: dosing until day 91, atacicept 20 mg/kg s.c. 3/week, MMF 350 mg/kg/day oral
Experimental: as §4, §5, §6, §7, §8, §9, §10, §11, §12

total serum IgA = experiment: 28-day atacicept and MMF co-administration study, total serum IgA by ELISA; format: in vivo, CD-1 mice
Experimental: as §1, §2
as §3, with “IgA” for “IgG”, “#E90-103,” for “#E90-131,”

total IgA serum levels = experiment: Repeat and extension of atacicept and MMF combination experiment, total IgA by ELISA; format: in vivo, mice; details: for Numeric mean IgA: dosing until day 91
Experimental: as §4, §5, §6, §7, §8, §9, §10, §11, §12

[1] = Day 28 (last day of treatment), MMF 351 mg/kg daily oral, atacicept 20 mg/kg 3x/week SC
[2] = Day 28, positive = reduction versus vehicle

Question: Which results are given for `COc1c(C)c2c(c(O)c1C/C=C(\C)CCC(=O)OCCN1CCOCC1)C(=O)OC2` [MMF, mycophenolate mofetil]?
Answer: Numeric mean IgG (total serum IgG; [1]): 185 µg/mL; Difference from Vehicle, mean IgG (vehicle minus treatment) (total serum IgG; [2]): -6 µg/mL; Difference from Vehicle, mean IgM (vehicle minus treatment) (total IgM serum levels; Sample Day 35): -35.64 µg/mL; Numeric mean IgM (total IgM serum levels; Sample Day 35, atacicept 20 mg/kg s.c. 3/week, MMF 350 mg/kg/day oral): 141.34 µg/mL; Difference from Vehicle, mean IgM (vehicle minus treatment) (total IgM serum levels; Sample Day 182): 20.18 µg/mL; Numeric mean IgM (total IgM serum levels; Sample Day 182 (recovery period)): 53.77 µg/mL; Numeric mean IgM (total serum IgM; [1]): 317 µg/mL; Difference from Vehicle, mean IgM (vehicle minus treatment) (total serum IgM; [2]): -79 µg/mL; Difference from Vehicle, mean IgG (vehicle minus treatment) (total IgG serum levels; Sample Day 35): -420.43 µg/mL; Numeric mean IgG (total IgG serum levels; Sample Day 35): 940.13 µg/mL; Difference from Vehicle, mean IgG (vehicle minus treatment) (total IgG serum levels; Sample Day 91): -495.86 µg/mL; Numeric mean IgG (total IgG serum levels; Sample Day 91): 1192.87 µg/mL; Numeric mean IgA (total serum IgA; [1]): 506 µg/mL; Difference from Vehicle, mean IgA (vehicle minus treatment) (total serum IgA; [2]): -8 µg/mL; Difference from Vehicle, mean IgA (vehicle minus treatment) (total IgA serum levels; Sample Day 91): -840.19 µg/mL; Numeric mean IgA (total IgA serum levels; Sample Day 91, atacicept 20 mg/kg s.c. 3/week, MMF 350 mg/kg/day oral): 1764.55 µg/mL; Difference from Vehicle, mean IgA (vehicle minus treatment) (total IgA serum levels; Sample Day 126): -353.57 µg/mL; Numeric mean IgA (total IgA serum levels; Sample Day 126 (recovery period)): 1467.05 µg/mL
